Results taken from patent publication US20100324829A1, “METHOD OF SELECTING HLA-DP4 LIGANDS AND THE APPLICATIONS THEREOF” (priority 2001, published 2010).
Numbering of substitutions follows the chain as printed. Where two headings read alike, the source gives them in different places. Where a SMILES comes first, the peptide text is derived from it.

What was measured:
Assay in all cases: biochemical
Format in all cases: binding
[1] = biological target: T1, HLA-DP4 molecule DPA1*0103/DPB1*0402 (DP402) (Homo sapiens, UniProt P04440+P20036, A65V/A84D/A85E/L207M)
T1 construct: purified from various human B lymphocyte lines transformed with the Epstein Barr virus (EBV), which are homozygotes for DP; endogenous in cells
T1 sequence (P20036 29-260): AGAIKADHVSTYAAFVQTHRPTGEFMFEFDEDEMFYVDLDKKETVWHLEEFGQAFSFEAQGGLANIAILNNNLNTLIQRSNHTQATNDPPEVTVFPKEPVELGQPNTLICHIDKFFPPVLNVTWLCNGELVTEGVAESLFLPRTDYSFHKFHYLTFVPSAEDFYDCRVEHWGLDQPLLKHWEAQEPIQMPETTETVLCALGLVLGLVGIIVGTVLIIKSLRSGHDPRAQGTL
T1 sequence (P04440 30-258 A65V/A84D/A85E): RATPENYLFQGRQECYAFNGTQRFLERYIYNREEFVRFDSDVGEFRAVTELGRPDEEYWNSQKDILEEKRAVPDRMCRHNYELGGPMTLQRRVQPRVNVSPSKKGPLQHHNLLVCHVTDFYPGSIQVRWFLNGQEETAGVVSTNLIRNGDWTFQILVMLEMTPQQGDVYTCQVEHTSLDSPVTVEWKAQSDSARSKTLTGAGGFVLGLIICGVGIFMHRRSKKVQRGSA

[2] = biological target: T2, HLA-DP4 molecule DPA1*0103/DPB1*0401 (DP401) (Homo sapiens, UniProt P04440+P20036)
T2 construct: purified from various human B lymphocyte lines transformed with the Epstein Barr virus (EBV), which are homozygotes for DP; endogenous in cells
T2 sequence (P20036 29-260): T1 sequence (P20036 29-260)
T2 sequence (P04440 30-258): T1 sequence (P04440 30-258 A65V/A84D/A85E) with V36A, D55A, E56A

[3] = biological target: T3, HLA-DP4 molecule DPA1*0103/DPB1*0402 (DP402) (Homo sapiens, UniProt P04440+P20036)
T3 construct: purified from various human B lymphocyte lines transformed with the Epstein Barr virus (EBV), which are homozygotes for DP; endogenous in cells
T3 sequence (P20036 29-260): T1 sequence (P20036 29-260)
T3 sequence (P04440 30-258 A65V/A84D/A85E): T1 sequence (P04440 30-258 A65V/A84D/A85E)

[4] = IC50 (nM) 402, Table XIII, binding to DPB1*0402, competition binding assay
[5] = IC50 (nM) DP0402, Api m1 overlapping peptides, tracer bUNK 1-17 10 nM, pH 5, 24 h
[6] = IC50 (nM) 401, Table XIII, binding to DPB1*0401, competition binding assay
[7] = IC50 (nM) DP0401, Api m1 overlapping peptides, tracer bUNK 1-17 10 nM, pH 5, 24 h

Molecule | Loss of binding to DP*0402 (ratio of the IC50 values for the mutant peptide and for the UNK1 peptide) [3] | Loss of binding to DP*0401 (ratio of the IC50 values for the mutant peptide and for the UNK1 peptide) [2] | also measured
CC[C@H](C)[C@H](NC(=O)[C@@H](N)Cc1c[nH]c2ccccc12)C(=O)N[C@H](C(=O)N[C@@H](CCC(N)=O)C(=O)N[C@@H](CS)C(=O)N[C@@H](Cc1ccccc1)C(=O)N[C@@H](CC(C)C)C(=O)N1CCC[C@H]1C(=O)N[C@H](C(=O)O)C(C)C)[C@@H](C)O (H-WITQCFLPV-OH; N-terminus and C-terminus assumed) | – | – | IC50 ([1]; calculated activity (using the DP*0402-binding assay)): 67 nM; IC50 ([2]; calculated activity (using the DP*0401-binding assay)): 20 nM
CC[C@H](C)[C@H](NC(=O)[C@@H](NC(=O)[C@H](CC(=O)O)NC(=O)[C@H](C)NC(=O)[C@H](CO)NC(=O)[C@H](CC(N)=O)NC(=O)[C@H](CCCCN)NC(=O)[C@H](CC(C)C)NC(=O)[C@H](CS)NC(=O)[C@@H](N)CC(=O)O)[C@@H](C)O)C(=O)N[C@@H](CO)C(=O)N[C@@H](CO)C(=O)N[C@@H](Cc1ccc(O)cc1)C(=O)N[C@@H](Cc1ccccc1)C(=O)N[C@H](C(=O)NCC(=O)N[C@@H](CCCCN)C(=O)N[C@@H](CCSC)C(=O)O)C(C)C [69-86] | – | – | IC50 [1, 4]: > 10000 nM; IC50 [1, 5]: > 10000 nM; IC50 [2, 6]: > 10000 nM; IC50 [2, 7]: > 10000 nM
CC[C@H](C)[C@H](NC(=O)[C@@H](NC(=O)[C@H](CC(=O)O)NC(=O)[C@H](C)NC(=O)[C@H](CO)NC(=O)[C@@H](N)CC(N)=O)[C@@H](C)O)C(=O)N[C@@H](CO)C(=O)N[C@@H](CO)C(=O)N[C@@H](Cc1ccc(O)cc1)C(=O)N[C@@H](Cc1ccccc1)C(=O)N[C@H](C(=O)NCC(=O)N[C@@H](CCCCN)C(=O)N[C@@H](CCSC)C(=O)N[C@@H](Cc1ccc(O)cc1)C(=O)N[C@@H](Cc1ccccc1)C(=O)N[C@@H](CC(N)=O)C(=O)N[C@@H](CC(C)C)C(=O)O)C(C)C [73-90] | – | – | IC50 [1, 4]: > 10000 nM; IC50 [1, 5]: > 10000 nM; IC50 [2, 6]: > 10000 nM; IC50 [2, 7]: > 10000 nM
CC[C@H](C)[C@H](NC(=O)[C@H](CC(C)C)NC(=O)[C@H](CC(N)=O)NC(=O)[C@H](Cc1ccccc1)NC(=O)[C@H](Cc1ccc(O)cc1)NC(=O)[C@H](CCSC)NC(=O)[C@H](CCCCN)NC(=O)CNC(=O)[C@@H](NC(=O)[C@H](Cc1ccccc1)NC(=O)[C@H](Cc1ccc(O)cc1)NC(=O)[C@H](CO)NC(=O)[C@H](CO)NC(=O)[C@@H](NC(=O)[C@@H](N)[C@@H](C)O)[C@@H](C)CC)C(C)C)C(=O)N[C@@H](CC(=O)O)C(=O)N[C@H](C(=O)N[C@@H](CCCCN)C(=O)O)[C@@H](C)O [77-94] (H-TISSYFVGKMYFNLIDTK-OH; N-terminus and C-terminus assumed) | – | – | IC50 [1, 4]: 175 nM; IC50 [1, 5]: 175 nM; IC50 [2, 6]: 450 nM; IC50 [2, 7]: 450 nM
CC(C)C[C@H](NC(=O)[C@H](CC(=O)O)NC(=O)[C@H](Cc1ccc(O)cc1)NC(=O)[C@H](CCC(N)=O)NC(=O)[C@@H](NC(=O)[C@H](CC(=O)O)NC(=O)[C@H](C)NC(=O)[C@@H]1CCCN1C(=O)[C@H](C)NC(=O)CNC(=O)[C@@H]1CCCN1C(=O)CN)C(C)C)C(=O)N[C@@H](Cc1ccc(O)cc1)C(=O)N[C@@H](CC(C)C)C(=O)N[C@@H](CC(N)=O)C(=O)N[C@H](C(=O)N[C@@H](C)C(=O)N[C@@H](CC(N)=O)C(=O)N[C@@H](CCCNC(=N)N)C(=O)N[C@@H](CCCNC(=N)N)C(=O)O)C(C)C [IL3 127-146, reference compound] | – | – | IC50 [1]: 30 nM; IC50 [2]: 30.4 nM
CC(C)C[C@H](NC(=O)[C@H](CCCNC(=N)N)NC(=O)[C@H](C)NC(=O)[C@H](C)NC(=O)[C@H](CC(C)C)NC(=O)[C@@H]1CCCN1C(=O)[C@H](CCC(=O)O)NC(=O)[C@H](Cc1ccccc1)NC(=O)[C@H](CCC(N)=O)NC(=O)[C@@H](NC(=O)[C@H](C)NC(=O)[C@H](C)N)[C@@H](C)O)C(=O)O [UNK6-17] (H-AATQFEPLAARL-OH) | – | – | IC50 ([1]; IC50 (nM) 402, peptides derived from UNK1, tracer bUNK 1-17 10 nM, pH 5, 24 h): 6000 nM
KYFAATQFEKLAA [UNK P12K] | 1.4 | 1.8 | –
KYFAATQFEPAAA [UNK L13A] | 2.3 | 3.1 | –
KYFAATQFEPDAA [UNK L13D] | 9 | 9.4 | –
KYFAATQFEPEAA [UNK L13E] | 8 | 11 | –
KYFAATQFEPFAA [UNK L13F] | 4 | 1.7 | –
KYFAATQFEPKAA [UNK L13K] | 70 | 81 | –
KYFAATQFEPLAK [UNK A15K] | 1.4 | 1.7 | –
KYFAATQFEPLKA [UNK A13K] | 1.4 | 1.7 | –
KYFAATQFEPNAA [UNK L13N] | 10 | 17 | –
KYFAATQFEPRAA [UNK L13R] | 43 | 64 | –
